Results: US20220411471A1, “CELL-PERMEABLE CYCLIC PEPTIDES AND USES THEREOF” (Unnatural Products Inc., priority 2019, published 2022)
Non-standard residues stand in square brackets, D forms with d. Residues, ends and D or L forms follow the SMILES beside them. Phe(4-Cl) = N[C@@H](Cc1ccc(Cl)cc1)C(=O)O; Phe(4-F) = N[C@@H](Cc1ccc(F)cc1)C(=O)O; 3Pal = N[C@@H](Cc1cccnc1)C(=O)O; 2Thi = N[C@@H](Cc1cccs1)C(=O)O; NMeL = CN[C@@H](CC(C)C)C(=O)O; dNMeV = CN[C@@H](C(=O)O)C(C)C; Tle = CC(C)(C)[C@H](N)C(=O)O; dPip = O=C(O)[C@H]1CCCCN1; NMeA = CN[C@@H](C)C(=O)O; Nme = COCCNCC(=O)O

Target: T1, Human MDM2 (HDM2) 1-116 (Homo sapiens, UniProt Q00987)
T1 construct: Human MDM2 (HDM2) 1-116
T1 sequence (Q00987 1-116): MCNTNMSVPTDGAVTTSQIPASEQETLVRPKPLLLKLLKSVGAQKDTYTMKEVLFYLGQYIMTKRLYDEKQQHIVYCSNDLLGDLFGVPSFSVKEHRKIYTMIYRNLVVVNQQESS
Assay: Fluorescence polarization assay, MDM2/p53 (Table 3)
Assay type: binding
Procedure: (§1) Human MDM2 (HDM2) 1-116 (20 μL) and FITC-labeled p53 (18-26), 50 nM and 10 nM respectively in 10 mM Tris, 50 mM NaCl, 0.01% Tween20, and 1 mM DTT at pH 7.4 were dispensed into an opaque, black, 384 well plate. Compounds dissolved in DMSO were pin transferred (˜200 nL) to the 384 well plate containing the MDM2/p53 solution. After incubation for 10 minutes, the fluorescence polarization was read on a Molecular Devices SpectraMax plate reader equipped with a Fluorescein FP cartridge. In addition to probe alone (positive control) and probe/MDM2 (negative control), a titration of linear p53(18-26) was included on every plate as an additional control. IC50 values were fit using either Prism or Collaborative Drug Discovery.
as §1, with “and FAM-labeled RFMDYWEGL-NH2,” for “and FITC-labeled p53 (18-26),”, “NaCl, 0.010%” for “NaCl, 0.01%”, “transferred (˜100-200” for “transferred (˜200”, “for 60” for “for 10”

Compound | IC50
COCCN1CC(=O)N(C)[C@@H](C)C(=O)N[C@@H](Cc2ccc(F)cc2)C(=O)N(C)[C@@H](C)C(=O)N[C@@H](Cc2ccc(Cl)cc2)C(=O)N(C)[C@H](C(C)C)C(=O)N2CCC[C@H]2C(=O)N[C@@H](Cc2ccccc2)C(=O)N[C@@H](C(C)(C)C)C(=O)N[C@@H](Cc2ccc(O)cc2)C1=O [Compound 31, [H]Oc1ccc(C[C@@H]2NC(=O)[C@@H](NC(=O)[C@H](Cc3ccccc3)NC(=O)[C@@H]3CCCN3C(=O)[C@@H](C(C)C)N(C)C(=O)[C@H](Cc3ccc(Cl)cc3)NC(=O)[C@H](C)N(C)C(=O)[C@H](Cc3ccc(F)cc3)NC(=O)[C@H](C)N(C)C(=O)CN(CCOC)C2=O)C(C)(C)C)cc1] (cyclo(F[Tle]Y[Nme][NMeA][Phe(4-F)][NMeA][Phe(4-Cl)][dNMeV]P)) | ≥ 5000 nM
C[C@H]1C(=O)N[C@@H](Cc2ccc(Cl)cc2)C(=O)N2CCCC[C@@H]2C(=O)N2CCC[C@H]2C(=O)N[C@@H](Cc2ccccc2)C(=O)N[C@@H](C(C)(C)C)C(=O)N[C@@H](Cc2ccc(O)cc2)C(=O)N2CCC[C@@H]2C(=O)N(C)[C@@H](C)C(=O)N[C@@H](Cc2ccc(F)cc2)C(=O)N1C [Compound 11, [H]Oc1ccc(C[C@@H]2NC(=O)[C@@H](NC(=O)[C@H](Cc3ccccc3)NC(=O)[C@@H]3CCCN3C(=O)[C@H]3CCCCN3C(=O)[C@H](Cc3ccc(Cl)cc3)NC(=O)[C@H](C)N(C)C(=O)[C@H](Cc3ccc(F)cc3)NC(=O)[C@H](C)N(C)C(=O)[C@H]3CCCN3C2=O)C(C)(C)C)cc1] (cyclo(F[Tle]Y[dP][NMeA][Phe(4-F)][NMeA][Phe(4-Cl)][dPip]P)) | ≥ 5000 nM
C[C@H]1C(=O)N[C@@H](Cc2ccc(Cl)cc2)C(=O)N2CCCC[C@@H]2C(=O)N2CCC[C@H]2C(=O)N[C@@H](Cc2ccc(O)cc2)C(=O)N[C@@H](CCC(=O)O)C(=O)N[C@@H](Cc2cccnc2)C(=O)N2CCC[C@@H]2C(=O)N(C)[C@@H](C)C(=O)N[C@@H](Cc2ccc(F)cc2)C(=O)N1C [Compound 15, [H]OC(=O)CC[C@@H]1NC(=O)[C@H](Cc2ccc(O[H])cc2)NC(=O)[C@@H]2CCCN2C(=O)[C@H]2CCCCN2C(=O)[C@H](Cc2ccc(Cl)cc2)NC(=O)[C@H](C)N(C)C(=O)[C@H](Cc2ccc(F)cc2)NC(=O)[C@H](C)N(C)C(=O)[C@H]2CCCN2C(=O)[C@H](Cc2cccnc2)NC1=O] (cyclo([3Pal][dP][NMeA][Phe(4-F)][NMeA][Phe(4-Cl)][dPip]PYE)) | 1000 to 2500 nM
COCCN1CC(=O)N(C)[C@@H](C)C(=O)N[C@@H](Cc2ccc(F)cc2)C(=O)N(C)[C@@H](C)C(=O)N[C@@H](Cc2ccc(Cl)cc2)C(=O)N2CCCC[C@@H]2C(=O)N2CCC[C@H]2C(=O)N[C@@H](Cc2ccccc2)C(=O)N[C@@H](C(C)(C)C)C(=O)N[C@@H](Cc2cccnc2)C1=O [Compound 21, COCCN1CC(=O)N(C)[C@@H](C)C(=O)N[C@@H](Cc2ccc(F)cc2)C(=O)N(C)[C@@H](C)C(=O)N[C@@H](Cc2ccc(Cl)cc2)C(=O)N2CCCC[C@@H]2C(=O)N2CCC[C@H]2C(=O)N[C@@H](Cc2ccccc2)C(=O)N[C@H](C(=O)N[C@@H](Cc2cccnc2)C1=O)C(C)(C)C] (cyclo([3Pal][Nme][NMeA][Phe(4-F)][NMeA][Phe(4-Cl)][dPip]PF[Tle])) | 1000 to 2500 nM
COCCN1CC(=O)N[C@@H](Cc2ccc(Cl)cc2)C(=O)N2CCCC[C@@H]2C(=O)N2CCC[C@H]2C(=O)N[C@@H](Cc2cccs2)C(=O)N[C@@H](C(C)(C)C)C(=O)N[C@@H](Cc2cccnc2)C(=O)N2CCC[C@@H]2C(=O)N(C)[C@@H](C)C(=O)N[C@@H](Cc2ccc(F)cc2)C1=O [Compound 25, COCCN1CC(=O)N[C@@H](Cc2ccc(Cl)cc2)C(=O)N2CCCC[C@@H]2C(=O)N2CCC[C@H]2C(=O)N[C@@H](Cc2cccs2)C(=O)N[C@H](C(=O)N[C@@H](Cc2cccnc2)C(=O)N2CCC[C@@H]2C(=O)N(C)[C@@H](C)C(=O)N[C@@H](Cc2ccc(F)cc2)C1=O)C(C)(C)C] (cyclo([2Thi][Tle][3Pal][dP][NMeA][Phe(4-F)][Nme][Phe(4-Cl)][dPip]P)) | < 1000 nM
CC(C)C[C@H]1C(=O)N[C@@H](CC(=O)O)C(=O)N[C@@H](Cc2ccc(F)cc2)C(=O)N[C@@H](CCC(=O)O)C(=O)N[C@@H](Cc2ccc(Cl)cc2)C(=O)N2CCC[C@@H]2C(=O)N2CCC[C@H]2C(=O)N[C@@H](Cc2ccccc2)C(=O)N[C@@H](CCC(=O)O)C(=O)N[C@@H](Cc2c[nH]c3ccccc23)C(=O)N1C [Compound 4, [H]OC(=O)CC[C@@H]1NC(=O)[C@H](Cc2ccccc2)NC(=O)[C@@H]2CCCN2C(=O)[C@H]2CCCN2C(=O)[C@H](Cc2ccc(Cl)cc2)NC(=O)[C@H](CCC(=O)O[H])NC(=O)[C@H](Cc2ccc(F)cc2)NC(=O)[C@H](CC(=O)O[H])NC(=O)[C@H](CC(C)C)N(C)C(=O)[C@H](Cc2cn([H])c3ccccc23)NC1=O] (cyclo(FEW[NMeL]D[Phe(4-F)]E[Phe(4-Cl)][dP]P)) | < 1000 nM
C[C@H]1C(=O)N[C@@H](Cc2ccc(Cl)cc2)C(=O)N2CCCC[C@@H]2C(=O)N2CCC[C@H]2C(=O)N[C@@H](Cc2cccnc2)C(=O)N[C@@H](CCC(=O)O)C(=O)N[C@@H](Cc2ccc(O)cc2)C(=O)N2CCC[C@@H]2C(=O)N(C)[C@@H](C)C(=O)N[C@@H](Cc2ccc(F)cc2)C(=O)N1C [Compound 16, [H]OC(=O)CC[C@@H]1NC(=O)[C@H](Cc2cccnc2)NC(=O)[C@@H]2CCCN2C(=O)[C@H]2CCCCN2C(=O)[C@H](Cc2ccc(Cl)cc2)NC(=O)[C@H](C)N(C)C(=O)[C@H](Cc2ccc(F)cc2)NC(=O)[C@H](C)N(C)C(=O)[C@H]2CCCN2C(=O)[C@H](Cc2ccc(O[H])cc2)NC1=O] (cyclo([3Pal]EY[dP][NMeA][Phe(4-F)][NMeA][Phe(4-Cl)][dPip]P)) | < 1000 nM
COCCN1CC(=O)N[C@@H](Cc2ccc(Cl)cc2)C(=O)N2CCCC[C@@H]2C(=O)N2CCC[C@H]2C(=O)N[C@@H](Cc2ccccc2)C(=O)N[C@@H](C(C)(C)C)C(=O)N[C@@H](Cc2cccnc2)C(=O)N2CCC[C@@H]2C(=O)N(C)[C@@H](C)C(=O)N[C@@H](Cc2ccc(F)cc2)C1=O [Compound 18, COCCN1CC(=O)N[C@@H](Cc2ccc(Cl)cc2)C(=O)N2CCCC[C@@H]2C(=O)N2CCC[C@H]2C(=O)N[C@@H](Cc2ccccc2)C(=O)N[C@H](C(=O)N[C@@H](Cc2cccnc2)C(=O)N2CCC[C@@H]2C(=O)N(C)[C@@H](C)C(=O)N[C@@H](Cc2ccc(F)cc2)C1=O)C(C)(C)C] (cyclo([3Pal][dP][NMeA][Phe(4-F)][Nme][Phe(4-Cl)][dPip]PF[Tle])) | < 1000 nM

The remaining lines, values ahead:

IC50 | Compound
< 1000 nM | COCCN1CC(=O)N(C)[C@@H](C)C(=O)N[C@@H](Cc2ccc(F)cc2)C(=O)N(C)[C@@H](C)C(=O)N[C@@H](Cc2ccc(Cl)cc2)C(=O)N(C)[C@H](C(C)C)C(=O)N2CCC[C@H]2C(=O)N[C@@H](Cc2ccccc2)C(=O)N[C@@H](C(C)(C)C)C(=O)N[C@@H](Cc2cccnc2)C1=O [Compound 23, COCCN1CC(=O)N(C)[C@@H](C)C(=O)N[C@@H](Cc2ccc(F)cc2)C(=O)N(C)[C@@H](C)C(=O)N[C@@H](Cc2ccc(Cl)cc2)C(=O)N(C)[C@H](C(C)C)C(=O)N2CCC[C@H]2C(=O)N[C@@H](Cc2ccccc2)C(=O)N[C@H](C(=O)N[C@@H](Cc2cccnc2)C1=O)C(C)(C)C] (cyclo([3Pal][Nme][NMeA][Phe(4-F)][NMeA][Phe(4-Cl)][dNMeV]PF[Tle]))
< 1000 nM | C[C@H]1C(=O)N[C@@H](Cc2cccnc2)C(=O)N2CCC[C@@H]2C(=O)N(C)[C@@H](C)C(=O)N[C@@H](Cc2ccc(F)cc2)C(=O)N[C@@H](C(C)(C)C)C(=O)N[C@@H](Cc2ccc(Cl)cc2)C(=O)N2CCCC[C@@H]2C(=O)N2CCC[C@H]2C(=O)N[C@@H](Cc2ccccc2)C(=O)N1C [Compound 26, C[C@@H]1N(C)C(=O)[C@H]2CCCN2C(=O)[C@H](Cc2cccnc2)NC(=O)[C@H](C)N(C)C(=O)[C@H](Cc2ccccc2)NC(=O)[C@@H]2CCCN2C(=O)[C@H]2CCCCN2C(=O)[C@H](Cc2ccc(Cl)cc2)NC(=O)[C@@H](NC(=O)[C@H](Cc2ccc(F)cc2)NC1=O)C(C)(C)C] (cyclo([3Pal][dP][NMeA][Phe(4-F)][Tle][Phe(4-Cl)][dPip]PF[NMeA]))
1000 to 2500 nM | C[C@H]1C(=O)N[C@@H](Cc2ccc(Cl)cc2)C(=O)N2CCCC[C@@H]2C(=O)N2CCC[C@H]2C(=O)N[C@@H](Cc2ccccc2)C(=O)N[C@@H](C(C)(C)C)C(=O)N[C@@H](Cc2cccnc2)C(=O)N2CCCC[C@@H]2C(=O)N(C)[C@@H](C)C(=O)N[C@@H](Cc2ccc(F)cc2)C(=O)N1C [Compound 28, C[C@@H]1N(C)C(=O)[C@H]2CCCCN2C(=O)[C@H](Cc2cccnc2)NC(=O)[C@@H](NC(=O)[C@H](Cc2ccccc2)NC(=O)[C@@H]2CCCN2C(=O)[C@H]2CCCCN2C(=O)[C@H](Cc2ccc(Cl)cc2)NC(=O)[C@H](C)N(C)C(=O)[C@H](Cc2ccc(F)cc2)NC1=O)C(C)(C)C] (cyclo([3Pal][dPip][NMeA][Phe(4-F)][NMeA][Phe(4-Cl)][dPip]PF[Tle]))
< 1000 nM | C[C@H]1C(=O)N[C@@H](Cc2ccc(F)cc2)C(=O)N[C@@H](CCC(=O)O)C(=O)N[C@@H](Cc2ccccc2)C(=O)N2CCCC[C@@H]2C(=O)N2CCC[C@H]2C(=O)N[C@@H](Cc2ccccc2)C(=O)N[C@@H](CCC(=O)O)C(=O)N[C@@H](Cc2c[nH]c3ccccc23)C(=O)N2CCC[C@@H]2C(=O)N1C [Compound 9, [H]OC(=O)CC[C@@H]1NC(=O)[C@H](Cc2ccccc2)NC(=O)[C@@H]2CCCN2C(=O)[C@H]2CCCCN2C(=O)[C@H](Cc2ccccc2)NC(=O)[C@H](CCC(=O)O[H])NC(=O)[C@H](Cc2ccc(F)cc2)NC(=O)[C@H](C)N(C)C(=O)[C@H]2CCCN2C(=O)[C@H](Cc2cn([H])c3ccccc23)NC1=O] (cyclo(EF[dPip]PFEW[dP][NMeA][Phe(4-F)]))
